Among the data in paper PMC5201275, “Structural and Catalytic Properties of S1 Nuclease from Aspergillus oryzae Responsible for Substrate Recognition, Cleavage, Non–Specificity, and Inhibition” (PLoS ONE, 2016) are X-ray crystal structure values, retold here.

This assay addresses T1, S1 nuclease (S1wt; S1D65N) (Aspergillus oryzae, UniProt P24021).
T1 construct: gene nucS; Endo F1 deglycosylated for crystals; three Zn2+
T1 sequence (P24021 21-287): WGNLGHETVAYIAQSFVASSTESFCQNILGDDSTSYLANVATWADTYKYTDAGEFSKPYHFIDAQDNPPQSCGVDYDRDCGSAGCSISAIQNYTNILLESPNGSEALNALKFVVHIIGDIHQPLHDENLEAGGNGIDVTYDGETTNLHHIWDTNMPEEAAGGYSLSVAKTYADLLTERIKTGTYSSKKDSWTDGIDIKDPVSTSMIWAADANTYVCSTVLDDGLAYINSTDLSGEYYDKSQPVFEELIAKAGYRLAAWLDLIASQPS
Put plainly: X-ray crystal structure. The format is binding.

For the compound `Nc1ccn([C@H]2C[C@H](O)[C@@H](CO)O2)c(=O)n1` [dCyt, 2'–deoxycytidine], for the setting “pH 4.2, NBS1, shallow mode, with phosphate in zinc cluster, co-crystallized with dC(pS)dC”, the X-ray crystal structure entry is “The structure contains one phosphate ion and one molecule of dCyt in the active site”.
Regarding `O=P(O)(O)O` [Pi, phosphate ion], the X-ray crystal structure result (pH 5.5, zinc cluster, first binding mode, occupancy 0.5, not added (no co-crystallization), also in 5FBB (pH 6.5) and 5FBD (pH 4.2, second mode)) is reported as “A phosphate ion inside the zinc cluster in the first binding mode is modeled”.
